Test results taken from patent US7064120B2, “Tricyclic pyridyl carboxamides and derivatives thereof tocolytic oxytocin receptor antagonists” (Wyeth, priority 2001, dated 2006).

Molecular target: T1, human oxytocin receptor (Homo sapiens, UniProt P30559)
T1 construct: host or cells: CHO cells, stably transfected (pcDNA3.1 vector)
T1 sequence (P30559 1-389): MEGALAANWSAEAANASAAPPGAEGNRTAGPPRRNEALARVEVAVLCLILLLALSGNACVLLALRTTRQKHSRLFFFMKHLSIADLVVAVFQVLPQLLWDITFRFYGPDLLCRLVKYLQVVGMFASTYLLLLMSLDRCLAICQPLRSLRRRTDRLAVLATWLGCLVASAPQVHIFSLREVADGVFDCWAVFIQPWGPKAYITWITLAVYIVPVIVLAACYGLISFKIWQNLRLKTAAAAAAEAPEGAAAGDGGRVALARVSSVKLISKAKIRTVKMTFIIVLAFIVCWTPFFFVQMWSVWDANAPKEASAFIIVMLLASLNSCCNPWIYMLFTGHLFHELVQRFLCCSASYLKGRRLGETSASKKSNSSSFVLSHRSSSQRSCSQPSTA
Test: Oxytocin binding in CHO cell membranes expressing human oxytocin receptors ([3H]oxytocin radioligand binding)
Settings: 100 nM, read-out: OT % inhibition @ 100 nM
In short: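 CHO membranes expressing human oxytocin receptor (25–50 μg protein/well) incubated 60 min at room temperature with [3H]oxytocin in Tris-HCl pH 7.4 buffer with MgCl2, BSA and protease inhibitors. Filtration and scintillation counting; reported as % inhibition at a stated concentration or nM IC50.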

Structure (SMILES)	inhibition at 0.1 µM
COc1cc(C(=O)N2Cc3ccc(C(=O)NCCc4ccccn4)n3Cc3ccccc32)ccc1-c1ccccc1C [Example 54, 10-[(2-Methoxy-2′-methyl-[1,1′-biphenyl]-4-yl)carbonyl]-N-[2-(2-pyridinyl)ethyl]-10,11-dihydro-5H-pyrrolo[2,1-c][1,4]benzodiazepine-3-carboxamide]	55%
Cc1ccccc1-c1ccc(C(=O)N2Cc3ccc(C(=O)NCc4ccccn4)n3Cc3ccccc32)cc1 [Example 27, 10-[(2′-Methyl-[1,1′-biphenyl]-4-yl)carbonyl]-N-(2-pyridinylmethyl)-10,11-dihydro-5H-pyrrolo[2,1-c][1,4]benzodiazepine-3-carboxamide]	22%
COc1cc(C(=O)N2Cc3ccc(C(=O)NCc4cccnc4)n3Cc3ccccc32)ccc1-c1ccccc1C [Example 41, 10-[(2-Methoxy-2′-methyl-[1,1′-biphenyl]-4-yl)carbonyl]-N-(3-pyridinylmethyl)-10,11-dihydro-5H-pyrrolo[2,1-c][1,4]benzodiazepine-3-carboxamide]	41%
COc1ccccc1-c1ccc(C(=O)N2Cc3ccc(C(=O)N(C)CCc4ccncc4)n3Cc3ccccc32)cc1C [Example 126, 10-[(2′-Methoxy-2-methyl-[1,1′-biphenyl]-4-yl)carbonyl]-N-methyl-N-[2-(4-pyridinyl)ethyl]-10,11-dihydro-5H-pyrrolo[2,1-c][1,4]benzodiazepine-3-carboxamide]	93%
COc1cccc(-c2cc(OC)c(C(=O)N3Cc4ccc(C(=O)N5CCN(c6ccncc6)CC5)n4Cc4ccccc43)cc2Cl)c1 [Example 120, {10-[(6-Chloro-3,3′-dimethoxy-[1,1′-biphenyl]-4-yl)carbonyl]-10,11-dihydro-5H-pyrrolo[2,1-c][1,4]benzodiazepin-3-yl}[4-(4-pyridinyl)-1-piperazinyl]methanone]	67%
COc1cccc(-c2cc(OC)c(C(=O)N3Cc4ccc(C(=O)N(C)CCc5ccncc5)n4Cc4ccccc43)cc2Cl)c1 [Example 133, 10-[(6-Chloro-3,3′-dimethoxy-[1,1′-biphenyl]-4-yl)carbonyl]-N-methyl-N-[2-(4-pyridinyl)ethyl]-10,11-dihydro-5H-pyrrolo[2,1-c][1,4]benzodiazepine-3-carboxamide]	87%
O=C(NCCc1ccccn1)c1ccc2n1Cc1ccccc1N(C(=O)c1ccc(-c3cccc4ccccc34)cc1Cl)C2 [Example 60, 10-[2-Chloro-4-(naphthalen-1-yl)benzoyl]-N-[2-(2-pyridinyl)ethyl]-10,11-dihydro-5H-pyrrolo[2,1-c][1,4]benzodiazepine-3-carboxamide]	11%
Cc1cc(C(=O)N2Cc3ccc(C(=O)NCc4ccccn4)n3Cc3ccccc32)ccc1-c1ccccc1C(F)(F)F [Example 35, 10-{[2-Methyl-2′-trifluoromethyl-[1,1′-biphenyl]-4-yl]carbonyl}-N-(2-pyridinylmethyl)-10,11-dihydro-5H-pyrrolo[2,1-c][1,4]benzodiazepine-3-carboxamide]	27%
Cc1ccccc1-c1ccc(C(=O)N2Cc3ccc(C(=O)NCc4cccnc4)n3Cc3ccccc32)cc1C [Example 37, 10-[(2,2′-Dimethyl-[1,1′-biphenyl]-4-yl)carbonyl]-N-(3-pyridinylmethyl)-10,11-dihydro-5H-pyrrolo[2,1-c][1,4]benzodiazepine-3-carboxamide]	60%
COc1cccc(-c2ccc(C(=O)N3Cc4ccc(C(=O)NCc5ccccn5)n4Cc4ccccc43)cc2OC)c1 [Example 33, 10-[(2,3′-Dimethoxy-[1,1′-biphenyl]-4-yl)carbonyl]-N-(2-pyridinylmethyl)-10,11-dihydro-5H-pyrrolo[2,1-c][1,4]benzodiazepine-3-carboxamide]	42%
COc1cccc(-c2ccc(C(=O)N3Cc4ccc(C(=O)NCc5cccnc5)n4Cc4ccccc43)cc2OC)c1 [Example 46, 10-[(2,3′-Dimethoxy-[1,1′-biphenyl]-4-yl)carbonyl]-N-(3-pyridinylmethyl)-10,11-dihydro-5H-pyrrolo[2,1-c][1,4]benzodiazepine-3-carboxamide]	31%
